Experimental findings from US20130164847A1, “USE OF A PROTEIN TYROSINE KINASE INHIBITOR FOR INDUCING THE DIFFERENTIATION OF MESENCHYMAL STEM CELLS INTO CARDIOGENIC CELLS” (PHARMICELL. CO., LTD., priority 2010, published 2013) are described below.

In this experiment the test system is mesenchymal stem cells. The experiment in a line: Sandwich ELISA of cTnT after ex vivo differentiation of rat MSCs by PTK inhibitor treatment. In kind it is cell-based. The note with it: rat MSCs cultured 9 days with 1 μM or 10 μM compound. The method, then: For the second subculture, MSCs were dispensed on a 60 mm plate at 2×10^5 cells/ml using the identical medium as above, treated with N-(3-bromophenyl)-6,7-diethoxyquinazoline-4-amine (Sigma), a protein tyrosine kinase (PTK) inhibitor, at a final concentration of 1 μM or 10 μM. The cells were cultured for 9 days, wherein the medium was replaced once every three days with a fresh medium containing the aforementioned compound.
100 ng of capture antibodies were bound to polyvinyl chloride (PVC) and microtiter high-binding plate (96 wells) at 4° C. overnight. The plate was washed twice with PBS, capture antibodies were blocked with PBS containing 5% BSA overnight under moist air at the room temperature. The plate was washed twice with PBS, and 5 ug of cell lysates together with blocking buffer was added to each well. The plate was incubated at 37° C. for 1.5 hours. The plate was washed 4 times with PBS containing 0.02% Tween-20. Upon adding detector antibodies, the plate was incubated under moist air and the room temperature for 2 hours, and washed 4 times with PBS containing 0.02% Tween-20. […] After 10 minutes, the reaction was stopped by adding 25 ul of 0.1M H2SO4, then the absorbance at 450 nm was immediately measured with an ELISA plate reader (Bio-Rad). […]

With `CCOc1cc2ncnc(Nc3cccc(Br)c3)c2cc1OCC` [compound #23, N-(3-bromophenyl)-6,7-diethoxyquinazoline-4-amine], the “differentiation into myocardial cells (sandwich ELISA, FIG. 13)” value is “increases depending on the concentration”. Moreover, under “sandwich ELISA, FIG. 13”, the “expression ratio of cardiac troponin T (cTnT)” value was “increasing expression ratio of cardiac troponin T (cTnT) by the method dependent on dosage”.
